Reference: patent publication US20040019088A1, “Use of Epothilones in the treatment of brain diseases associated with proliferative processes” (Schering AG, priority 2002, published 2004)
Where “and” joins values, the source holds several entries; their conditions need not be identical. Identical values can stand only once. Marks after values point to notes of the source that are not given here.

What was measured:
[1] = Mouse bolus injection assay (blood and brain levels of Epothilones); conditions: for Brain plasma ratio: after 20 min, iv application; for concentration at 10 min / concentration at 20 min / concentration at 40 min / AUC(0-t) / Kp: male, SCID, mouse, in vivo, 5 mg/kg; for AUC(0-t) / Kp: iv
Method: Mouse Bolus Injection Assay
(In Vivo Assay for the Evaluation of Blood and Brain Levels of Epothilones)
Male SCID mice (20-25 g, non-leaky) were treated with a single dose of tritium-labeled Epothilones and paclitaxel (5 mg/kg; 7.4 MBq/mg; in 30% Hydroxypropyl-β-cyclodextrin (HPβCD)/NaCl iv bolus injection). Partitioning of radioactivity between blood and brain was measured by liquid scintillation counting (LSC) and HPLC-radioflow at three time points (10, 20 and 40 min) after injection.

Human U373 glioma cells = assay: In vivo efficacy against xenografted (s.c.) and intracerebral human glioma; conditions: for i. cer. Brain Tumor Volume d 32: i.cer. U373 in NMRI nu/nu-mice; for RTV s.c. Tumors d 25 (Relative Tumor Volume): s.c. U373 in NMRI nu/nu-mice
Method: In vivo assay for the evaluation of efficacy of Epothilones against xenografted and intracerebral human glioma.
(§1) Female NMRI nu/nu-mice (20-28 g) were used for this experiment. Human U373 glioma cells were implanted s.c. (1×10^7/mouse) as well as i.cer. (2×10^5/mouse) on day 0. Treatment was started on day 7 when the s.c. tumors were approximately 0,05 cm^3 in size. […] After termination of the experiment, the size of the brain tumors was determined (Table 2).

[2] = Tolerability (deaths, body weight change) in the U373 glioma study; format: in vivo, NMRI nu/nu-mice; conditions: for BWC d 7-17 (Body Weight Change) / Deaths/total (d): NMRI nu/nu-mice
Method: as §1

[3] = in vivo; cited from earlier work
[4] = 5 mg/kg iv bolus, 3H-labeled, male SCID mice
[5] = 10 min after 5 mg/kg iv bolus, 3H-labeled, male SCID mice
[6] = 20 min after 5 mg/kg iv bolus, 3H-labeled, male SCID mice
[7] = 40 min after 5 mg/kg iv bolus, 3H-labeled, male SCID mice
[8] = Group B: 9 mg/kg i.v., days 7, 14
[9] = Group C: 2 mg/kg i.v., days 7, 9, 11, 14, 16, 18
[10] = both schedules (groups B and C) vs. untreated control

SMILES	Brain AUC (0-40 min) [1, 4]	Brain plasma ratio [1]	concentration at 10 min [1]	concentration at 20 min [1]	concentration at 40 min [1]	AUC(0-t) [1]	Kp [1]	Brain conc. mean [1, 5]	Brain conc. mean [1, 6]	Brain conc. mean [1, 7]	other results
CCCC1C(=O)C(C)(C)C(O)CC(=O)OC(C(C)=Cc2csc(C)n2)CC=C(C)CCCC(C)C1O (stereo not drawn) [Compound 1, 4,8-dihydroxy-16-(1-methyl-2-(2-methyl-4-thiazolyl)-ethenyl)-1-oxa-7-(1-propyl)-5,5,9,13-tetramethyl-cyclohexadec-13-ene-2,6-dione]	21 µg·min/mL	higher brain plasma ratio	800 ng/mL and 300 ng/g	600 ng/mL and 800 ng/g	300 ng/mL and 600 ng/g	333 ng·h/mL	1	–	–	–	–
CCCC1C(=O)C(C)(C)C(O)CC(=O)OC(C(C)=Cc2csc(C)n2)CC2OC2(C)CCCC(C)C1O (stereo not drawn) [Compound 2]	35 µg·min/mL	higher brain plasma ratio	–	–	–	–	–	1.1 µg/g	1.1 µg/g	0.8 µg/g	Plasma AUC (0-40 min) [1, 4]: 31 µg·min/mL; Plasma conc. mean [1, 5]: 1600 ng/mL; Plasma conc. mean [1, 6]: 700 ng/mL; Plasma conc. mean [1, 7]: 300 ng/mL; AUC Ratio Brain/Plasma ([1]; partial AUC 0-40 min, 5 mg/kg iv bolus, male SCID mice): 1.2
C=CCC1C(=O)C(C)(C)C(O)CC(=O)OC(c2ccc3sc(C)nc3c2)CC2OC2(C)CCCC(C)C1O (stereo not drawn) [Compound 3, 7,11-dihydroxy-3-(2-methylbenzothiazol-5-yl)-10-(prop-2-en-1-yl)-8,8,12,16-tetramethyl-4,17-dioxabicyclo[14.1.0]heptadecane-5,9-dione]	20 µg·min/mL	–	1200 ng/mL and 900 ng/g	700 ng/mL and 300 ng/g	300 ng/mL and 600 ng/g	417 ng·h/mL	0.8	–	–	–	i. cer. Brain Tumor Volume d 32 (Human U373 glioma cells; [8]): 0.002* mm^3; RTV s.c. Tumors d 25 (Relative Tumor Volume) (Human U373 glioma cells; [8]): 1.15; i. cer. Brain Tumor Volume d 32 (Human U373 glioma cells; [9]): 0.96 mm^3; RTV s.c. Tumors d 25 (Relative Tumor Volume) (Human U373 glioma cells; [9]): 1.40; Therapeutic effect on i.cer. U373 brain tumors (Human U373 glioma cells; [10]): significant therapeutic effect; Therapeutic effect on s.c. U373 tumors (Human U373 glioma cells; [10]): significant therapeutic effect; BWC d 7-17 (Body Weight Change) [2, 8]: −7%; Deaths/total (d) [2, 8]: 0/10; BWC d 7-17 (Body Weight Change) [2, 9]: −3%; Deaths/total (d) [2, 9]: 1/10; Body weight loss ([2]; treatment groups B and C): Only a moderate body weight loss (not significant)
CC(=O)O[C@H]1C(=O)[C@@]2(C)[C@H]([C@H](OC(=O)c3ccccc3)[C@]3(O)C[C@H](OC(=O)[C@H](O)[C@@H](NC(=O)c4ccccc4)c4ccccc4)C(C)=C1C3(C)C)[C@]1(OC(C)=O)CO[C@@H]1C[C@@H]2O [Paclitaxel, reference compound]	0 µg·min/mL	–	800 ng/mL	600 ng/mL	200 ng/mL	317 ng·h/mL	–	<LOQ	<LOQ	<LOQ	Detection in the brain ([1]; 40 minutes after application): detected in the brain in considerable amounts; Concentration in brain samples ([1]; all brain samples (10, 20, 40 min)): below the limit of quantitation; Ability to penetrate the BBB [3]: only low ability to penetrate the BBB
